The results in this text go back to patent US10717731B2, “Nitrogen-containing aromatic heterocyclic compound” (MITSUBISHI TANABE PHARMA CORPORATION, priority 2015, dated 2020).

The target of the first test is T1, human CYP11B2 (Homo sapiens, UniProt P19099).
T1 construct: expressed in transfected cells; mitochondrial fraction
T1 sequence (P19099 25-503): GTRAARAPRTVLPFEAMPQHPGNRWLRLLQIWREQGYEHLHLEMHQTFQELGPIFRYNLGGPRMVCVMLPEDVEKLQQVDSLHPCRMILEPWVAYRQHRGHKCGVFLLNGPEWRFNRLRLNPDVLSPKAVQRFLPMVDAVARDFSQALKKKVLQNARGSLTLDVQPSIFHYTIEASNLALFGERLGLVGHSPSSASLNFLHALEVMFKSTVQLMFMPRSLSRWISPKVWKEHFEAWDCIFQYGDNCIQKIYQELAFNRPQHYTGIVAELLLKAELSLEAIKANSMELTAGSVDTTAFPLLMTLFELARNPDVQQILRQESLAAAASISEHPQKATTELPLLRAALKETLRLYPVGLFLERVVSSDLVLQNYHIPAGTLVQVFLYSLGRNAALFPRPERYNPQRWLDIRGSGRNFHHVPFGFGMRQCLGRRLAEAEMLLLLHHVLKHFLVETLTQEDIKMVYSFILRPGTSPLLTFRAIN
Description: Inhibitory effect on hCYP11B2: aldosterone production in mitochondrial fraction of V79 cells stably expressing human CYP11B2, HTRF. It counts as biochemical. As to conditions: 0.5 μmol/L deoxycorticosterone, 150 μmol/L NADPH, 1.5-2 hours at room temperature. How it is done:
Experimental Example 1 (Inhibitory Effect on hCYP11B2)
The pcDNA3.1-human CYP11B2 plasmid was transfected into a Chinese hamster lung fibroblast V79 cell line to produce a cell line stably expressing human CYP11B2 gene.
The cells were cultured and grown in the Dulbecco's modified Eagle's/Ham's medium supplemented with 10% fetal bovine serum and 1% G418 disulfate solution under the environment of 37° C., 95% air, and 5% CO2, and the grown cells were harvested.
Then, the cells were fractionated to obtain mitochondria by reference to a method described in Chabre et al. JCE & M 85 (11) 4060-68, 2000. In particular, the cells suspended in a 5 mmol/L Tris-HCl buffer (pH 7.4) containing 250 mmol/L sucrose were homogenized in a Teflon (Registered Trademark) Potter Elvehjem homogenizer, and then the suspension was centrifuged (800×g, 15 min.). The supernatant was separated and again centrifuged (10000×g, 15 min.) to obtain a pellet (mitochondrial fraction).
The mitochondrial fraction diluted with a buffer containing 10 mmol/L KH2PO4, 10 mmol/L Tris, 20 mmol/L KCl, 25 mmol/L sucrose, 5 mmol/L MgCl2, and 0.05% bovine serum albumin was dispensed to a 96-well plate. 0.5 μmol/L Deoxycorticosterone, 150 μmol/L NADPH and a compound of each concentration were added to each well, and incubated for 1.5-2 hours at room temperature to produce aldosterone. An amount of the produced aldosterone in the incubated solution was determined by using HTRF (Homogeneous Time Resolved Fluorescence) method.
IC50 (nmol/L) was calculated by analyzing the aldosterone production inhibition rate (%) of each concentration of compounds by non-linear regression to a logistic curve.
On the technique in general: In TR-FRET formats the signal depends on donor and acceptor labels being close together.
In general, IC50 refers to the point on the concentration scale where inhibition reaches its midpoint. Low readings indicate greater potency in that assay, high ones weaker potency in that assay. For `CC(C)NC(=O)CN1CCN(c2cncc(-c3ccc4cnn(C)c4c3)n2)CC1` [Example 49], the IC50 turned out to be 7.5 nM.
`CS(=O)(=O)CCN1CCC(NC(=O)CN2CCN(c3cc(-c4ccc(F)cc4)cnn3)CC2)CC1` [Example 71] showed an IC50 of 16 nM.
`CC1CCC(c2cncc(N3CCN(CC(=O)NC(C)C)CC3)n2)CC1` (stereo not shown) [Example 52] displayed a half-maximal inhibitory concentration (IC50) of 18 nM.
`CC(C)[C@@H](CO)NC(=O)CN1CCN(c2cncc(-c3ccc(C(F)(F)F)cc3)n2)C[C@H]1C` [Example 42] displayed a half-inhibitory concentration (IC50) of 40 nM.
`CC(C)(C)OC(=O)N1CC[C@@H](NC(=O)CN2CCN(c3cc(-c4ccc(F)cc4)cnn3)CC2)[C@H](F)C1` [Example 88] registered an IC50 of 7.8 nM.
Compound `CN(C)[C@H]1CC[C@@H](NC(=O)CN2CCN(c3cncc(-c4ccc(F)cc4)c3)CC2)CC1` [Example 6] displayed an IC50 of 13 nM.
`Cn1ncc2cc(-c3cncc(N4CCN(CC(=O)N[C@H]5CC[C@@H](N(C)C)CC5)CC4)n3)ccc21` [Example 29] had an IC50 of 37 nM.
Same read-out and setting: the figure for `Cc1ccc(-c2cncc(N3CCN(CC(=O)NC4CC5COCC(C4)C5O)CC3)c2)cc1` (stereo not shown) [Example 10] is 9.2 nM; for `CNC(=O)CN1CCC(NC(=O)CN2CCN(c3cc(-c4ccc(F)cc4)cnn3)CC2)CC1` [Example 73] it is 18 nM; for `Cn1ncc2cc(-c3cncc(N4CCN(CC(=O)N[C@H]5CC[C@@H](C(C)(C)O)CC5)CC4)n3)ccc21` [Example 30] it is 13 nM.
In the case of `CC(C)(C)OC(=O)N1CCN(CCNC(=O)CN2CCN(c3cc(-c4ccc(F)cc4)cnn3)CC2)CC1` [Example 64], the IC50 was found to be 6.6 nM.
In the case of `CC(C)NC(=O)CN1CCN(c2cc(-c3ccc4ccccc4c3)cnn2)CC1` [Example 86], 8.4 nM corresponded to half-maximal inhibition (IC50).
On the same count and under the same terms, then `O=C(CN1CCN(c2cncc(-c3ccc(F)cc3)n2)CC1)NC1CCN(C2CCOCC2)CC1` [Example 34], with 7 nM.
Consider `CC(C)NC(=O)CN1CCN(c2cc(-c3ccc(F)cc3)cnn2)CC1` [Example 85], for which the IC50 is 7 nM.
`CC(C)NC(=O)CN1CCN(c2cncc(-c3ccc4cnn(C)c4c3)c2)CC1` [Example 15] returned an IC50 of 18 nM.
For `Cc1ccccc1-c1cncc(N2CCN(CC(=O)N[C@H](CO)C(C)C)CC2)c1` [Example 8], the IC50 turned out to be 4.9 nM.
In the case of `O=C(CN1CCN(c2cncc(-c3ccc(Cl)cc3)n2)CC1)NC1CCS(=O)(=O)CC1` [Example 41], the half-inhibitory concentration (IC50) is 9.6 nM.
Consider `O=C(CN1CCN(c2cc(-c3ccc(F)cc3)cnn2)CC1)NC1CCN(CCO)CC1` [Example 78], for which half-maximal inhibition (IC50) was put at 28 nM.
Regarding `CC(C)(C)OC(=O)N1C2COCC1CC(NC(=O)CN1CCN(c3cncc(-c4ccc(F)cc4)c3)CC1)C2` (stereo not shown) [Example 5], the IC50 stood at 14 nM.
With `CN1CCC(NC(=O)CN2CCN(c3cc(-c4ccc(Cl)cc4)cnn3)CC2)CC1=O` (single isomer, unassigned) [Example 91a], the IC50 turned out to be 30 nM.
For the compound `CC(C)NC(=O)CN1CCN(c2cncc(-c3ccc4c(cnn4C)c3)n2)CC1` [Example 50], half-maximal inhibition (IC50) required 48 nM.
As to `CS(=O)(=O)CCN1CCC(NC(=O)CN2CCN(c3cncc(-c4ccc(F)cc4)n3)CC2)CC1` [Example 35], the IC50 stood at 8.6 nM.
Consider `O=C(CN1CCN(c2cncc(-c3ccc(F)cc3)n2)CC1)N[C@H]1CC[C@@H](N2CCOCC2)CC1` [Example 32], for which half-maximal inhibition (IC50) required 9.6 nM.
The compound `CO[C@H]1CC[C@@H](NC(=O)CN2CCN(c3cncc(-c4ccc(C)cc4)n3)CC2)CC1` [Example 20] showed an IC50 of 4.5 nM.
Take `CC(C)NC(=O)CN1CCN(c2cncc(-c3ccc4c(c3)CCO4)c2)CC1` [Example 13]: the IC50 was 11 nM.
As for `CC(C)NC(=O)CN1CCN(c2cncc(-c3ccc4cn[nH]c4c3)c2)CC1` [Example 14], the IC50 worked out at 30 nM.
In turn, `Cc1ccccc1-c1cnnc(N2CCN(CC(=O)N[C@H]3CC[C@H](N4CCOCC4)CC3)CC2)c1` [Example 57] came in with an IC50 of 16 nM.

A further test concerns the target T2, human Cyp11B1 (Homo sapiens, UniProt P15538).
T2 sequence (P15538 25-503): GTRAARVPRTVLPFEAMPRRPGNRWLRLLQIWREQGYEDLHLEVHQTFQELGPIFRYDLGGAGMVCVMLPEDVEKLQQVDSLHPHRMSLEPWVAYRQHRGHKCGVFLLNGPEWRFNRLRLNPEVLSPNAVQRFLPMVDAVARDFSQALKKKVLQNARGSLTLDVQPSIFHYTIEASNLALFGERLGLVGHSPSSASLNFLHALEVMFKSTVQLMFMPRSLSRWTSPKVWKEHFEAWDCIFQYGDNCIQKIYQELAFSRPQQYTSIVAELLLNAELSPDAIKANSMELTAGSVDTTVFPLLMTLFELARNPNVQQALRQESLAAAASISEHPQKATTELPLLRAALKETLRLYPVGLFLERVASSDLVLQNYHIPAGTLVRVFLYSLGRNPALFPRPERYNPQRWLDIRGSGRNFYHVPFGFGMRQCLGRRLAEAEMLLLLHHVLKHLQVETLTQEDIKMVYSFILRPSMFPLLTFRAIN
As to the kind of experiment: Selectivity: IC50 against human Cyp11B2 compared with human Cyp11B1. It counts as biochemical. The settings on record: ratio of IC50 values (nM).
Regarding `CC(C)NC(=O)CN1CCN(c2cncc(-c3ccc4cnn(C)c4c3)n2)CC1` [Example 49], the “IC50 value against human Cyp11B2 versus human Cyp11B1 (selectivity)” value was 100 times.
